The values below are quoted from earlier work in patent publication EP1649859A1, “Pharmaceutical compositions comprising at least one poorly diffusible anticancer drug and a olidodeoxynucleotide immunestimulant” (Institut Gustave Roussy, priority 2004, dated 2006).

The conditions of this data set: bléomycine seule à des doses sub-thérapeutiques.

Regarding bléomycine, the activité antitumorale propre result is “ne possèdent pas d'activité antitumorale propre”.
